Assay [1] has as its system Ilyonectria destructans. Description: N-Acylation of compound was determined after 22 hr incubation at 250 mg/mL concentration using Cylindrocarpon radicicola resting cells and residual amine was evaluated.
Assay [2] relates to Ilyonectria destructans. Description: N-Acylation of amine was determined after 22 hr incubation at 250 mg/mL concentration using Cylindrocarpon radicicola resting cells to amide expressed as enantioselectivity coefficient (amine/amide): 48/52.
Assay [3] has as its system Ilyonectria destructans. Description: N-Acylation of amine was determined after 22 hr incubation at 250 mg/mL concentration using Cylindrocarpon radicicola resting cells to amide expressed as enantioselectivity coefficient (amine/amide): 65/35.
Assay [4] deals with Ilyonectria destructans. The experiment in a line: N-Acylation of amine was determined after 22 hr incubation at 250 mg/mL concentration using Cylindrocarpon radicicola resting cells to amide expressed as enantioselectivity coefficient (amine/amide): 53/47.
Assay [5] deals with Ilyonectria destructans. Description: N-Acylation of amine was determined after 22 hr incubation at 250 mg/mL concentration using Cylindrocarpon radicicola resting cells to amide expressed as enantioselectivity coefficient (amine/amide): 59/41.
Assay [6] relates to Ilyonectria destructans. Description: N-Acylation of amine was determined after 22 hr incubation at 250 mg/mL concentration using Cylindrocarpon radicicola resting cells to amide expressed as enantioselectivity coefficient (amine/amide): 52/48.

The values below come from ChEMBL document CHEMBL1127217, “Enantioselective acetylation of primary amines by Cylindrocarpon radicicola” (Bioorg Med Chem Lett, 1993).

In the case of `NC(Cc1ccccc1)c1ccccc1` (stereo not given), the Residual amine (ee) in assay [1] turned out to be 80%. In assay [2], this molecule yielded an Enantioselectivity coefficient of 48.
In turn, `CC(CN)c1ccccc1` (stereo not given) yielded an Enantioselectivity coefficient in assay [3] of 65. For the same molecule, the Residual amine (ee) in assay [1] came out at 0%.
Take `CC(N)COc1ccccc1` (stereo not given): the Enantioselectivity coefficient in assay [4] stood at 53. For the same molecule, in assay [1], the Residual amine (ee) came out at 95%.
For `NC(c1ccccc1)c1ccc(Cl)cc1` (stereo not given), the Enantioselectivity coefficient in assay [5] was 59. In assay [1], the Residual amine (ee) is 0%.
`NC1CCc2ccccc21` (stereo not given) displayed an Enantioselectivity coefficient in assay [6] of 52. In assay [1], this molecule gave a Residual amine (ee) of 0%.
